Measured values published in the supplement of paper PMC8967900.

System: RCH-ACV
Experiment: selective drug sensitivity score (sDSS, relative to normal bone marrow) (sDSS (score)); higher = more potent and effective on the cell line relative to normal bone marrow cells
Conditions: 72 h
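Also: ALL cell lines in 384-well plates, five doses spanning 10,000-fold, each plate scaled between vehicle and 100 µmol/L benzalkonium chloride controls, sDSS an adapted area-under-curve metric.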

| Compound | selective drug sensitivity score |
| --- | --- |
| C[C@H]1CNCCCN1S(=O)(=O)c1cccc2cncc(F)c12 [Ripasudil] (top concentration 10000 nM) | -0.22 |
| C[C@@H](Oc1cc(-c2cnn(C3CCNCC3)c2)cnc1N)c1c(Cl)ccc(F)c1Cl [Crizotinib] (top concentration 1000 nM) | -0.54 |
| CCN(CC)CCCC(C)Nc1ccnc2cc(Cl)ccc12 (stereo not given) [Chloroquine] (top concentration 100000 nM) | -0.14 |
| N#CC(c1ccnc(OCc2ccc(CN3CCOCC3)cc2)n1)c1nc2ccccc2s1 (stereo not given) [Bentamapimod] (top concentration 10000 nM) | 4.44 |
| COc1cc(N2CCC(N3CCN(C)CC3)CC2)ccc1Nc1ncnc(Nc2ccccc2S(=O)(=O)C(C)C)n1 [ASP3026] (top concentration 10000 nM) | -0.74 |
| COCCOc1cnc2ccn([C@H](C)c3nnc4c(F)cc(-c5cnn(C)c5)cn34)c(=O)c2c1 [AMG-337] (top concentration 10000 nM) | -0.06 |
| Cc1cnc(NC(=O)Nc2cc(Br)c(C)cc2OC[C@@H]2CNCCO2)cn1 [Rabusertib] (top concentration 1000 nM) | 2.06 |
| CNC(=O)c1ccc(-c2cnc3ncc(Cc4ccc5ncccc5c4)n3n2)cc1F [Capmatinib] (top concentration 1000 nM) | -0.06 |
| COc1cc2/c(=N/c3ccc(Br)cc3F)nc[nH]c2cc1OCC1CCN(C)CC1 [Vandetanib] (top concentration 1000 nM) | -0.22 |

System: REH
Experiment: as above
Conditions: 72 h

| Compound | selective drug sensitivity score |
| --- | --- |
| Nc1ncnc2c1c(COc1cccc(Cl)c1)nn2C1CCOCC1 (top concentration 10000 nM) | -0.64 |
| CC1(C)CNc2cc(NC(=O)c3cccnc3NCc3ccncc3)ccc21 [Motesanib] (top concentration 10000 nM) | -0.22 |
| NC(=O)c1cccc(-c2cccc(OC(=O)NC3CCCCC3)c2)c1 [URB597] (top concentration 1000 nM) | -0.46 |
| CCCN(CCC)C(=O)C1=Cc2ccc(-c3ccc(C(=O)N4CCCC4)cc3)cc2N=C(N)C1 [Motolimod] (top concentration 10000 nM) | -2.48 |
| CCCOc1ccn2c(C(C)=O)cc(-c3ccccc3S(C)(=O)=O)c2c1 [GSK2801] (top concentration 10000 nM) | -0.36 |
| Nc1cc(COc2c(Cl)cc(C[C@H](N)C(=O)O)cc2Cl)c2oc(-c3ccccc3)nc2c1 [JPH203] (top concentration 5000 nM) | 0.2 |
| CC/C(=C(\c1ccccc1)c1ccc(OCCN(C)C)cc1)c1ccccc1 [Tamoxifen] (top concentration 10000 nM) | 1.02 |
| NC(=S)N/N=C/c1ncccc1N [Triapine] (top concentration 10000 nM) | 3.88 |
| C=CCN(/C=C1/C(=O)O[C@H](COC)[C@@]2(C)C1=C(O)C(=O)C1=C2[C@H](OC(C)=O)C[C@]2(C)C(=O)CC[C@@H]12)CC=C [Sonolisib] (top concentration 10000 nM) | -0.76 |
| C[C@H]1CNCCCN1S(=O)(=O)c1cccc2cncc(F)c12 [Ripasudil] (top concentration 10000 nM) | -0.22 |
| C[C@@H](Oc1cc(-c2cnn(C3CCNCC3)c2)cnc1N)c1c(Cl)ccc(F)c1Cl [Crizotinib] (top concentration 1000 nM) | -0.54 |
| CCN(CC)CCCC(C)Nc1ccnc2cc(Cl)ccc12 (stereo not given) [Chloroquine] (top concentration 100000 nM) | 0.96 |
| N#CC(c1ccnc(OCc2ccc(CN3CCOCC3)cc2)n1)c1nc2ccccc2s1 (stereo not given) [Bentamapimod] (top concentration 10000 nM) | 6.54 |
| COc1cc(N2CCC(N3CCN(C)CC3)CC2)ccc1Nc1ncnc(Nc2ccccc2S(=O)(=O)C(C)C)n1 [ASP3026] (top concentration 10000 nM) | 3.26 |
| COCCOc1cnc2ccn([C@H](C)c3nnc4c(F)cc(-c5cnn(C)c5)cn34)c(=O)c2c1 [AMG-337] (top concentration 10000 nM) | 1.24 |
| Cc1cnc(NC(=O)Nc2cc(Br)c(C)cc2OC[C@@H]2CNCCO2)cn1 [Rabusertib] (top concentration 1000 nM) | 0.06 |
| CNC(=O)c1ccc(-c2cnc3ncc(Cc4ccc5ncccc5c4)n3n2)cc1F [Capmatinib] (top concentration 1000 nM) | -0.06 |
| COc1cc2/c(=N/c3ccc(Br)cc3F)nc[nH]c2cc1OCC1CCN(C)CC1 [Vandetanib] (top concentration 1000 nM) | -0.22 |

System: 380
Experiment: as above
Conditions: 72 h

| Compound | selective drug sensitivity score |
| --- | --- |
| Nc1ncnc2c1c(COc1cccc(Cl)c1)nn2C1CCOCC1 (top concentration 10000 nM) | 5.46 |
| CC1(C)CNc2cc(NC(=O)c3cccnc3NCc3ccncc3)ccc21 [Motesanib] (top concentration 10000 nM) | -0.22 |
| NC(=O)c1cccc(-c2cccc(OC(=O)NC3CCCCC3)c2)c1 [URB597] (top concentration 1000 nM) | 2.44 |
| CCCN(CCC)C(=O)C1=Cc2ccc(-c3ccc(C(=O)N4CCCC4)cc3)cc2N=C(N)C1 [Motolimod] (top concentration 10000 nM) | -4.38 |
| CCCOc1ccn2c(C(C)=O)cc(-c3ccccc3S(C)(=O)=O)c2c1 [GSK2801] (top concentration 10000 nM) | 3.44 |
| Nc1cc(COc2c(Cl)cc(C[C@H](N)C(=O)O)cc2Cl)c2oc(-c3ccccc3)nc2c1 [JPH203] (top concentration 5000 nM) | 1.2 |
| CC/C(=C(\c1ccccc1)c1ccc(OCCN(C)C)cc1)c1ccccc1 [Tamoxifen] (top concentration 10000 nM) | 0.02 |
| NC(=S)N/N=C/c1ncccc1N [Triapine] (top concentration 10000 nM) | 5.88 |
| C=CCN(/C=C1/C(=O)O[C@H](COC)[C@@]2(C)C1=C(O)C(=O)C1=C2[C@H](OC(C)=O)C[C@]2(C)C(=O)CC[C@@H]12)CC=C [Sonolisib] (top concentration 10000 nM) | -0.56 |
| C[C@H]1CNCCCN1S(=O)(=O)c1cccc2cncc(F)c12 [Ripasudil] (top concentration 10000 nM) | 3.28 |
| C[C@@H](Oc1cc(-c2cnn(C3CCNCC3)c2)cnc1N)c1c(Cl)ccc(F)c1Cl [Crizotinib] (top concentration 1000 nM) | -0.54 |
| CCN(CC)CCCC(C)Nc1ccnc2cc(Cl)ccc12 (stereo not given) [Chloroquine] (top concentration 100000 nM) | -4.94 |
| N#CC(c1ccnc(OCc2ccc(CN3CCOCC3)cc2)n1)c1nc2ccccc2s1 (stereo not given) [Bentamapimod] (top concentration 10000 nM) | -0.46 |
| COc1cc(N2CCC(N3CCN(C)CC3)CC2)ccc1Nc1ncnc(Nc2ccccc2S(=O)(=O)C(C)C)n1 [ASP3026] (top concentration 10000 nM) | -2.74 |
| COCCOc1cnc2ccn([C@H](C)c3nnc4c(F)cc(-c5cnn(C)c5)cn34)c(=O)c2c1 [AMG-337] (top concentration 10000 nM) | 3.04 |
| Cc1cnc(NC(=O)Nc2cc(Br)c(C)cc2OC[C@@H]2CNCCO2)cn1 [Rabusertib] (top concentration 1000 nM) | -0.74 |
| CNC(=O)c1ccc(-c2cnc3ncc(Cc4ccc5ncccc5c4)n3n2)cc1F [Capmatinib] (top concentration 1000 nM) | 2.04 |
| COc1cc2/c(=N/c3ccc(Br)cc3F)nc[nH]c2cc1OCC1CCN(C)CC1 [Vandetanib] (top concentration 1000 nM) | -0.22 |
